Source: ChEMBL document CHEMBL1201862, “PubChem BioAssay data set” (2004)
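Growth conditions: 96-well plates. Treatment: test compound, 48 hours, 5 concentrations. Analysis: linear interpolation between bracketing concentrations; unreached endpoints set to highest concentration. GI50 = concentration required for 50% inhibition of growth.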 Activity calls are given as the source filed them. Rule as the data show it: active = GI50 up to about 1.1 µM and inactive = higher.

How the values were obtained:
Assay in all cases: NCI anticancer screen, dose series, 48 h
[1] = system: Malme-3M
[2] = system: SK-OV-3
[3] = system: TK-10
[4] = system: HOP-62
[5] = system: LOX IMVI
[6] = system: SNB-75
[7] = system: MDA-N
[8] = system: COLO 205
[9] = system: T47D
[10] = system: 786-0
[11] = system: RXF 393
[12] = system: K562
[13] = system: MOLT-4
[14] = system: OVCAR-5
[15] = system: OVCAR-8
[16] = system: HT-29
[17] = system: KM12
[18] = system: HCT-15
[19] = system: ACHN
[20] = system: UACC-62
[21] = system: EKVX
[22] = system: NCI-H23
[23] = system: SK-MEL-2
[24] = system: RPMI-8226
[25] = system: M14
[26] = system: UACC-257
[27] = system: NCI-H460
[28] = system: SF-539
[29] = system: SF-295
[30] = system: NCI/ADR-RES
[31] = system: MDA-MB-435
[32] = system: SF-268
[33] = system: HL-60
[34] = system: SNB-19
[35] = system: IGROV-1
[36] = system: SK-MEL-5
[37] = system: MCF7
[38] = system: SN12C
[39] = system: OVCAR-3
[40] = system: HCT-116
[41] = system: A549
[42] = system: UO-31
[43] = system: CAKI-1
[44] = system: SW-620
[45] = system: Hs-578T
[46] = system: SK-MEL-28
[47] = system: CCRF-CEM
[48] = system: A498
[49] = system: U-251
[50] = system: PC-3
[51] = system: NCI-H226
[52] = system: MDA-MB-231
[53] = system: NCI-H522
[54] = system: OVCAR-4
[55] = system: HCC 2998
[56] = system: DU-145
[57] = system: SR
[58] = system: HOP-92

N#CCC12CC=CCC1=C(O)C(=O)c1ccc(O)cc12 (centres undefined)
GI50 [1]: > 100 µM (inactive) | GI50 [2]: > 100 µM (inactive) | GI50 [3]: > 100 µM (inactive) | GI50 [4]: > 100 µM (inactive) | GI50 [5]: > 100 µM (inactive) | GI50 [6]: 67.6 µM (inactive) | GI50 [7]: > 100 µM (inactive) | GI50 [8]: > 100 µM (inactive) | GI50 [9]: > 100 µM (inactive) | GI50 [10]: > 100 µM (inactive) | GI50 [11]: > 100 µM (inactive) | GI50 [12]: > 100 µM (inactive) | GI50 [13]: > 100 µM (inactive) | GI50 [14]: > 100 µM (inactive) | GI50 [15]: > 100 µM (inactive) | GI50 [16]: > 100 µM (inactive) | GI50 [17]: > 100 µM (inactive) | GI50 [18]: > 100 µM | GI50 [19]: > 100 µM (inactive) | GI50 [20]: > 100 µM (inactive) | GI50 [21]: > 100 µM (inactive) | GI50 [22]: > 100 µM (inactive) | GI50 [23]: > 100 µM (inactive) | GI50 [24]: > 100 µM (inactive) | GI50 [25]: 55.7 µM (inactive) | GI50 [26]: > 100 µM (inactive) | GI50 [27]: > 100 µM (inactive) | GI50 [28]: > 100 µM (inactive) | GI50 [29]: > 100 µM (inactive) | GI50 [30]: > 100 µM (inactive) | GI50 [31]: > 100 µM (inactive) | GI50 [32]: > 100 µM (inactive) | GI50 [33]: > 100 µM (inactive) | GI50 [34]: > 100 µM (inactive) | GI50 [35]: > 100 µM (inactive) | GI50 [36]: > 100 µM (inactive) | GI50 [37]: > 100 µM (inactive) | GI50 [38]: > 100 µM (inactive) | GI50 [39]: > 100 µM (inactive) | GI50 [40]: > 100 µM (inactive) | GI50 [41]: > 100 µM (inactive) | GI50 [42]: 48.6 µM (inactive) | GI50 [43]: > 100 µM (inactive) | GI50 [44]: > 100 µM (inactive) | GI50 [45]: 58.1 µM (inactive) | GI50 [46]: > 100 µM (inactive) | GI50 [47]: > 100 µM (inactive) | GI50 [48]: > 100 µM (inactive) | GI50 [49]: > 100 µM (inactive) | GI50 [50]: > 100 µM (inactive) | GI50 [51]: 68.5 µM (inactive) | GI50 [52]: > 100 µM (inactive) | GI50 [53]: > 100 µM (inactive) | GI50 [54]: 52 µM (inactive) | GI50 [55]: > 100 µM (inactive) | GI50 [56]: > 100 µM (inactive) | GI50 [57]: 90.8 µM (inactive)

COc1cc([C@@H]2c3cc4c(cc3[C@@H](Nc3ccc(C(=O)N[C@H]5CCc6cc(OC)c(OC)c(OC)c6-c6ccc(SC)c(=O)cc65)cc3)[C@H]3COC(=O)[C@H]23)OCO4)cc(OC)c1O
GI50 [1]: 0.322 µM (active) | GI50 [3]: 15.2 µM (inactive) | GI50 [5]: < 0.01 µM (active) | GI50 [8]: < 0.01 µM (active) | GI50 [10]: < 0.01 µM (active) | GI50 [58]: 0.042 µM (active) | GI50 [12]: < 0.01 µM (active) | GI50 [13]: < 0.01 µM (active) | GI50 [14]: 43.1 µM (inactive) | GI50 [15]: < 0.01 µM (active) | GI50 [16]: < 0.01 µM (active) | GI50 [18]: 0.428 µM | GI50 [19]: 0.0598 µM (active) | GI50 [20]: < 0.01 µM (active) | GI50 [22]: < 0.01 µM (active) | GI50 [23]: < 0.01 µM (active) | GI50 [24]: < 0.01 µM (active) | GI50 [25]: < 0.01 µM (active) | GI50 [26]: < 0.01 µM (active) | GI50 [27]: < 0.01 µM (active) | GI50 [28]: < 0.01 µM (active) | GI50 [29]: < 0.01 µM (active) | GI50 [30]: 0.493 µM (active) | GI50 [31]: < 0.01 µM (active) | GI50 [32]: 11.7 µM (inactive) | GI50 [37]: < 0.01 µM (active) | GI50 [38]: < 0.01 µM (active) | GI50 [40]: < 0.01 µM (active) | GI50 [41]: < 0.01 µM (active) | GI50 [42]: 0.698 µM (active) | GI50 [43]: 0.132 µM (active) | GI50 [44]: < 0.01 µM (active) | GI50 [46]: 13 µM (inactive) | GI50 [47]: < 0.01 µM (active) | GI50 [48]: 0.437 µM (active) | GI50 [49]: < 0.01 µM (active) | GI50 [51]: < 0.01 µM (active) | GI50 [53]: < 0.01 µM (active) | GI50 [57]: < 0.01 µM (active)

Cc1ccc(C(=O)N/N=C(\N=N\c2ccccc2)c2ccc(N(CCC#N)CCC#N)cc2C)cc1
GI50 [2]: 74 µM (inactive) | GI50 [3]: 51.1 µM (inactive) | GI50 [4]: 23.1 µM (inactive) | GI50 [5]: 99.1 µM (inactive) | GI50 [6]: 34 µM (inactive) | GI50 [8]: > 100 µM (inactive) | GI50 [9]: > 100 µM (inactive) | GI50 [11]: 38.9 µM (inactive) | GI50 [58]: > 100 µM (inactive) | GI50 [12]: > 100 µM (inactive) | GI50 [13]: > 100 µM (inactive) | GI50 [14]: > 100 µM (inactive) | GI50 [15]: 38 µM (inactive) | GI50 [16]: 35.1 µM (inactive) | GI50 [17]: > 100 µM (inactive) | GI50 [18]: > 100 µM | GI50 [19]: > 100 µM (inactive) | GI50 [20]: 38.8 µM (inactive) | GI50 [21]: 74.6 µM (inactive) | GI50 [22]: 85.7 µM (inactive) | GI50 [23]: 69.8 µM (inactive) | GI50 [24]: > 100 µM (inactive) | GI50 [25]: > 100 µM (inactive) | GI50 [26]: 82.4 µM (inactive) | GI50 [27]: > 100 µM (inactive) | GI50 [28]: 18.3 µM (inactive) | GI50 [29]: 86.5 µM (inactive) | GI50 [30]: > 100 µM (inactive) | GI50 [31]: 45.6 µM (inactive) | GI50 [32]: 24.2 µM (inactive) | GI50 [33]: > 100 µM (inactive) | GI50 [34]: 58.3 µM (inactive) | GI50 [35]: > 100 µM (inactive) | GI50 [36]: 31.8 µM (inactive) | GI50 [37]: 53.5 µM (inactive) | GI50 [39]: 39.2 µM (inactive) | GI50 [41]: > 100 µM (inactive) | GI50 [42]: > 100 µM (inactive) | GI50 [43]: 64.6 µM (inactive) | GI50 [44]: > 100 µM (inactive) | GI50 [45]: 28.2 µM (inactive) | GI50 [46]: 13 µM (inactive) | GI50 [47]: > 100 µM (inactive) | GI50 [48]: > 100 µM (inactive) | GI50 [49]: 92.5 µM (inactive) | GI50 [50]: 67.9 µM (inactive) | GI50 [51]: 54.8 µM (inactive) | GI50 [52]: > 100 µM (inactive) | GI50 [53]: 19.4 µM (inactive) | GI50 [54]: 65.5 µM (inactive) | GI50 [55]: > 100 µM (inactive) | GI50 [56]: > 100 µM (inactive) | GI50 [57]: > 100 µM (inactive)
